Assay results published in the supplement of paper PMC10307832.

Assays:
Assay in all cases: relative viability (nuclei count vs DMSO), 5 days (fraction); higher = more cells survive
[1] = compound: COc1cc2ncn(-c3cc(OCc4ccccc4C(F)(F)F)c(C(N)=O)s3)c2cc1OC + CS(=O)(=O)CCNCc1ccc(-c2ccc3ncnc(Nc4ccc(OCc5cccc(F)c5)c(Cl)c4)c3c2)o1 [Lapatinib] (partner 2 µM)
Outline: (§1)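 Lung cancer cell lines in 1536-well plates got either a single drug or a fixed anchor-drug dose together with five library-drug doses (not always all listed) in √10 steps, by pin tool, on the day after seeding. Nuclei were counted after 5 days, and relative viability is the treated-to-vehicle ratio of nuclei counts. Values are medians of duplicate plates.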

[2] = compound: COc1cc2ncn(-c3cc(OCc4ccccc4C(F)(F)F)c(C(N)=O)s3)c2cc1OC + C[C@@H](Oc1cc(-c2cnn(C3CCNCC3)c2)cnc1N)c1c(Cl)ccc(F)c1Cl [Crizotinib] (partner 1 µM)
Outline: as §1

[3] = compound: COc1cc2ncn(-c3cc(OCc4ccccc4C(F)(F)F)c(C(N)=O)s3)c2cc1OC + Cc1nc(Nc2ncc(C(=O)Nc3c(C)cccc3Cl)s2)cc(N2CCN(CCO)CC2)n1 [Dasatinib] (partner 0.075 µM)
Outline: as §1

[4] = compound: COc1cc2ncn(-c3cc(OCc4ccccc4C(F)(F)F)c(C(N)=O)s3)c2cc1OC + Nc1nc2[nH]cc(CCc3ccc(C(=O)N[C@@H](CCC(=O)O)C(=O)O)cc3)c2c(=O)[nH]1 [Pemetrexed] (partner 0.2 µM)
Outline: as §1

Cell Line	relative viability ([1]; first compound 0.05 µM)	relative viability ([1]; first compound 0.1581 µM)	relative viability ([1]; first compound 0.5 µM)	relative viability ([1]; first compound 1.581 µM)	relative viability ([1]; first compound 5 µM)	relative viability ([2]; first compound 0.05 µM)	relative viability ([2]; first compound 0.1581 µM)	relative viability ([2]; first compound 0.5 µM)	relative viability ([2]; first compound 1.581 µM)	relative viability ([2]; first compound 5 µM)	relative viability ([3]; first compound 0.05 µM)	relative viability ([3]; first compound 0.1581 µM)	relative viability ([3]; first compound 0.5 µM)	relative viability ([3]; first compound 1.581 µM)	relative viability ([3]; first compound 5 µM)	relative viability ([4]; first compound 0.05 µM)	relative viability ([4]; first compound 0.1581 µM)	relative viability ([4]; first compound 0.5 µM)	relative viability ([4]; first compound 1.581 µM)	relative viability ([4]; first compound 5 µM)
NCI-H596	1.1	1.22	0.911	0.586	0.33	0.959	0.965	0.991	0.814	0.401	0.616	0.561	0.478	0.279	0.235	0.559	0.463	0.454	0.359	0.337
NCI-H1792	0.935	0.834	0.868	0.24	0.0845	1.05	0.937	0.752	0.459	0.0845	0.786	0.757	0.372	0.287	0.25	0.683	0.688	0.0781	0.0502	0.0387
NCI-H1993	0.954	0.852	0.594	0.466	0.51	0.898	0.877	0.693	0.58	0.614	0.649	0.555	0.528	0.503	0.424	0.513	0.616	0.41	0.421	0.448
NCI-H647	0.97	0.935	0.448	0.0772	0.0798	1.01	0.788	0.224	0.113	0.108	0.216	0.144	0.0412	0.0467	0.0528	0.179	0.176	0.0943	0.06	0.0757
NCI-H1563	1.04	1.02	0.877	0.748	0.588	0.832	0.968	0.872	0.661	0.582	0.51	0.506	0.454	0.44	0.349	0.833	0.654	0.707	0.71	0.365
HCC-827	0.165	0.23	0.207	0.13	0.206	0.925	0.871	0.698	0.341	0.287	0.321	0.359	0.222	0.293	0.292	0.269	0.304	0.227	0.259	0.263
NCI-H2228	1.26	0.998	0.297	0.162	0.251	0.542	0.554	0.31	0.207	0.308	0.381	0.472	0.176	0.132	0.181	0.329	0.352	0.265	0.153	0.238
NCI-H2170	0.262	0.241	0.244	0.221	0.2	1.25	1.15	0.599	0.268	0.258	0.545	0.406	0.374	0.163	0.156	0.251	0.268	0.26	0.184	0.162
